Results as given in BindingDB's records for doi:10.1021/jm9910371 (Uppsala University, 1999).

Molecular target: T1, Dimer of Gag-Pol polyprotein [501-599] (Human immunodeficiency virus 1, UniProt P03367)
T1 construct: 501-599
Experiment: Protease Inhibition Assay
Details: pH 5; 30 °C
Method: Ki values were determined by using a fluorescent substrate (DABCYL-gamma-Abu-[…]EDANS). All incubations were performed at 30°C in 0.1 M sodium acetate 1 M NaCl 1 mM DTT 1 mM EDTA 3% DMSO (pH 5.0) by using 5 uM substrate and the indicated enzyme concentrations ([E]). The enzyme concentration (A280) was determined by absorption measurements.

Row | Structure (SMILES) | Ki [nM]
1 | CNC(=O)[C@@H](NC(=O)[C@H](OCc1ccccc1)[C@H](O)[C@@H](O)[C@@H](OCc1ccccc1)C(=O)N[C@H](C(=O)NC)C(C)C)C(C)C [1-Valine Methylamide deriv. 1] | 0.4
2 | CNC(=O)[C@@H](NC(=O)[C@H](OCc1ccc(C2CCCC(=O)C2=O)cc1)[C@H](O)[C@@H](O)[C@@H](OCc1ccc(C2CCCC(=O)C2=O)cc1)C(=O)N[C@H](C(=O)NC)C(C)C)C(C)C (stereo partly drawn) [N1,N6-Bis[(1S)-2-methyl-1-(methylcarbamoyl)pro-pyl](2R,3R,4R,5R)-2,5-bis[4-(3-cyclohexane-1,2-dionyl)benzyloxy]-3,4-dihydroxyhexanediamide] | 0.3
